Assay results published in the NIST ThermoML archive (doi:10.1016/j.jct.2017.03.034).
± gives the expanded uncertainty stated by the source.

Experiment: molar heat capacity at constant pressure
Conditions: Liquid, Large sample (1 g) DSC

CCCCCCCCCC [decane]
molar heat capacity at constant pressure [J/K/mol]
Conditions	120 kPa	10170 kPa
323.15 K	326.25 ± 5.1	322.98 ± 5
328.15 K	328.24 ± 5.1	325.68 ± 5
333.15 K	330.52 ± 5.1	328.39 ± 5.1
338.15 K	333.22 ± 5.1	330.95 ± 5.1
343.15 K	336.21 ± 5.3	333.65 ± 5.1
348.15 K	339.06 ± 5.3	336.35 ± 5.3
353.15 K	341.9 ± 5.3	339.06 ± 5.3
358.15 K	344.46 ± 5.4	342.05 ± 5.3
363.15 K	346.88 ± 5.4	344.61 ± 5.4
368.15 K	349.73 ± 5.4	347.31 ± 5.4
373.15 K	352.72 ± 5.4	350.3 ± 5.4
378.15 K	355.56 ± 5.5	353 ± 5.4
383.15 K	358.55 ± 5.5	355.7 ± 5.5
388.15 K	361.68 ± 5.5	358.41 ± 5.5
393.15 K	364.81 ± 5.7	361.4 ± 5.5
398.15 K	367.8 ± 5.7	364.24 ± 5.7
403.15 K	371.21 ± 5.7	367.09 ± 5.7
408.15 K	–	370.07 ± 5.7
413.15 K	–	372.78 ± 5.8
418.15 K	–	375.77 ± 5.8
423.15 K	–	379.32 ± 5.8
428.15 K	–	382.6 ± 6

CCCCCCCC [octane]
molar heat capacity at constant pressure [J/K/mol]
Conditions	100 kPa	10130 kPa
323.15 K	263.3 ± 4.1	260.9 ± 4
328.15 K	265.7 ± 4.1	263.18 ± 4.1
333.15 K	267.98 ± 4.1	265.58 ± 4.1
338.15 K	270.38 ± 4.2	267.75 ± 4.1
343.15 K	272.66 ± 4.2	270.04 ± 4.2
348.15 K	275.18 ± 4.2	272.32 ± 4.2
353.15 K	277.58 ± 4.3	274.49 ± 4.2
358.15 K	280.09 ± 4.3	277 ± 4.3
363.15 K	282.6 ± 4.3	279.17 ± 4.3
368.15 K	285.11 ± 4.5	281.57 ± 4.3
373.15 K	287.86 ± 4.5	283.97 ± 4.5
378.15 K	290.37 ± 4.5	286.49 ± 4.5
383.15 K	293.45 ± 4.6	288.88 ± 4.5
388.15 K	–	290.94 ± 4.5
393.15 K	–	292.88 ± 4.6
398.15 K	–	295.97 ± 4.6

CCCCCCCCCCCCCC [tetradecane]
molar heat capacity at constant pressure [J/K/mol]
Conditions	120 kPa	10120 kPa
323.15 K	449.55 ± 6.9	447.76 ± 6.9
328.15 K	452.72 ± 6.9	451.13 ± 6.9
333.15 K	456.09 ± 7.1	454.51 ± 7.1
338.15 K	459.47 ± 7.1	457.88 ± 7.1
343.15 K	463.04 ± 7.1	461.25 ± 7.1
348.15 K	466.61 ± 7.1	464.82 ± 7.1
353.15 K	470.38 ± 7.3	468.2 ± 7.3
358.15 K	474.15 ± 7.3	471.97 ± 7.3
363.15 K	477.72 ± 7.3	475.54 ± 7.3
368.15 K	481.49 ± 7.5	478.91 ± 7.3
373.15 K	485.26 ± 7.5	483.07 ± 7.5
378.15 K	489.03 ± 7.5	486.45 ± 7.5
383.15 K	492.8 ± 7.7	489.82 ± 7.5
388.15 K	496.76 ± 7.7	493.19 ± 7.7
393.15 K	500.14 ± 7.7	497.16 ± 7.7
398.15 K	504.5 ± 7.7	500.73 ± 7.7
403.15 K	508.27 ± 7.9	503.71 ± 7.7
408.15 K	512.44 ± 7.9	508.47 ± 7.9
413.15 K	515.81 ± 7.9	511.64 ± 7.9
418.15 K	519.58 ± 8.1	515.41 ± 7.9
423.15 K	523.35 ± 8.1	518.78 ± 8.1
428.15 K	527.12 ± 8.1	522.16 ± 8.1
433.15 K	530.89 ± 8.1	525.93 ± 8.1
438.15 K	535.25 ± 8.3	529.3 ± 8.1
443.15 K	539.81 ± 8.3	533.47 ± 8.3
448.15 K	543.58 ± 8.3	537.63 ± 8.3
453.15 K	547.95 ± 8.5	541.6 ± 8.3
458.15 K	554.1 ± 8.5	545.77 ± 8.5
463.15 K	559.65 ± 8.7	550.33 ± 8.5
468.15 K	–	553.9 ± 8.5
473.15 K	–	558.07 ± 8.7
478.15 K	–	562.83 ± 8.7
483.15 K	–	566.79 ± 8.7

CCCCCCCCCCCCCCCC [hexadecane]
molar heat capacity at constant pressure [J/K/mol]
Conditions	130 kPa	10090 kPa
323.15 K	513.57 ± 7.9	512.21 ± 7.9
328.15 K	517.19 ± 7.9	515.83 ± 7.9
333.15 K	520.81 ± 8.2	519.46 ± 8.2
338.15 K	524.66 ± 8.2	523.31 ± 8.2
343.15 K	528.51 ± 8.2	526.48 ± 8.2
348.15 K	532.82 ± 8.2	530.1 ± 8.2
353.15 K	536.44 ± 8.4	534.4 ± 8.4
358.15 K	540.74 ± 8.4	538.48 ± 8.4
363.15 K	544.59 ± 8.4	542.1 ± 8.4
368.15 K	548.67 ± 8.6	546.4 ± 8.4
373.15 K	553.2 ± 8.6	550.7 ± 8.6
378.15 K	557.27 ± 8.6	554.55 ± 8.6
383.15 K	561.57 ± 8.6	558.86 ± 8.6
388.15 K	565.65 ± 8.8	563.16 ± 8.8
393.15 K	569.73 ± 8.8	567.24 ± 8.8
398.15 K	574.03 ± 8.8	571.31 ± 8.8
403.15 K	578.56 ± 9.1	575.61 ± 8.8
408.15 K	583.09 ± 9.1	579.92 ± 9.1
413.15 K	586.94 ± 9.1	584.44 ± 9.1
418.15 K	591.46 ± 9.1	588.97 ± 9.1
423.15 K	595.77 ± 9.3	593.05 ± 9.3
428.15 K	599.62 ± 9.3	596.45 ± 9.3
433.15 K	603.92 ± 9.3	600.3 ± 9.3
438.15 K	608.67 ± 9.5	604.6 ± 9.3
443.15 K	613.2 ± 9.5	609.35 ± 9.5
448.15 K	617.28 ± 9.5	613.66 ± 9.5
453.15 K	622.26 ± 9.7	617.05 ± 9.5
458.15 K	–	621.35 ± 9.7
463.15 K	–	625.43 ± 9.7
468.15 K	–	630.19 ± 9.7
473.15 K	–	634.94 ± 9.7

CCCCCCCCCCCC [dodecane]
molar heat capacity at constant pressure [J/K/mol]
Conditions	100 kPa	10180 kPa
323.15 K	386.32 ± 6	385.13 ± 6
328.15 K	389.56 ± 6	388.02 ± 6
333.15 K	392.79 ± 6.1	391.26 ± 6.1
338.15 K	395.86 ± 6.1	394.33 ± 6.1
343.15 K	399.09 ± 6.1	397.39 ± 6.1
348.15 K	402.33 ± 6.3	400.46 ± 6.1
353.15 K	405.57 ± 6.3	403.52 ± 6.3
358.15 K	408.8 ± 6.3	406.93 ± 6.3
363.15 K	412.04 ± 6.5	410 ± 6.3
368.15 K	415.28 ± 6.5	413.23 ± 6.5
373.15 K	418.85 ± 6.5	416.13 ± 6.5
378.15 K	422.09 ± 6.5	419.36 ± 6.5
383.15 K	425.5 ± 6.6	422.6 ± 6.5
388.15 K	428.73 ± 6.6	426.01 ± 6.6
393.15 K	432.31 ± 6.6	429.07 ± 6.6
398.15 K	435.38 ± 6.8	433.16 ± 6.6
403.15 K	438.78 ± 6.8	435.89 ± 6.8
408.15 K	442.53 ± 6.8	438.78 ± 6.8
413.15 K	445.77 ± 7	441.68 ± 6.8
418.15 K	449.34 ± 7	444.06 ± 6.8
423.15 K	452.92 ± 7	447.64 ± 7
428.15 K	456.5 ± 7.2	450.88 ± 7
433.15 K	460.59 ± 7.2	454.28 ± 7
438.15 K	465.35 ± 7.2	458.2 ± 7.2
443.15 K	–	462.12 ± 7.2
448.15 K	–	465.7 ± 7.2
453.15 K	–	469.95 ± 7.3

CCCCCC [hexane]
molar heat capacity at constant pressure [J/K/mol]
Conditions	323.15 K	328.15 K	333.15 K	338.15 K	343.15 K	348.15 K	353.15 K	358.15 K	363.15 K	368.15 K
140 kPa	203.63 ± 3.2	205.7 ± 3.2	207.85 ± 3.2	–	–	–	–	–	–	–
10090 kPa	200.62 ± 3.1	202.43 ± 3.1	204.49 ± 3.2	206.13 ± 3.2	208.11 ± 3.2	210.1 ± 3.3	211.91 ± 3.3	214.15 ± 3.4	216.04 ± 3.4	218.37 ± 3.4
